Results taken from patent EP0774461A1, “Excitatory amino acid derivatives” (ELI LILLY AND COMPANY, priority 1995, dated 1997).
pIC50: −log10 of the molar value.

Tested on: metabotropic glutamate receptors
Assay: displacement of 1S,3R-ACPD-sensitive [3H]glutamate binding to rat brain cell membranes
Settings: selective displacement of 1S,3R-ACPD-sensitive [3H]glutamate binding; crude membranes of rat forebrain
Procedure: The binding of [^3H]glutamate was conducted with crude membranes of rat forebrain as described by Schoepp and True. Schoepp and True, Neuroscience Lett., 145, 100-104 (1992) and Wright et al., J. Neurochemistry 63: 938-945 (1994).

pIC50: 7.26
Compound: N[C@]1(C(=O)O)CO[C@@H]2[C@@H](C(=O)O)[C@@H]21 (racemic) [Example 1, 1SR,4SR,5RS,6SR-4-Amino-2-Oxabicyclo[3.1.0]hexane-4,6-dicarboxylic Acid]
